# Measured values published in patent US20190375708A1 (VenatoRx Pharmaceuticals, Inc., priority 2018, published 2019).
# Read-outs that look alike come from different tables or passages of the source.
# Experiments:
# [1] = test system: HBV replication in HepAD38 cells; test: Anti-HBV replication assay in HepAD38 cells (QPCR of extracellular HBV DNA); format: cell-based, HBV (genotype D, serotype ayw); conditions: 7 days incubation, extracellular HBV DNA by QPCR, read-out: Anti-HBV EC50
# Procedure, shortened: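 Stably transfected HepG2-derived HepAD38 cells express HBV (genotype D, ayw) once tetracycline is withdrawn. Compounds act for 7 days, after which secreted HBV DNA is quantified by QPCR relative to DMSO-treated wells.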
# HepG2 cells = test: In vitro cytotoxicity assay (MTT cell viability) in HepG2 cells; format: cell-based, human
# Procedure, shortened: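 Read-out: MTT formazan absorbance at 492 nm, expressed as % of vehicle signal; CC50 by 4-parameter non-linear regression. Parental HepG2, 20,000 cells/well, treated 7 days with compound from 30 μM down to 1.0 nM.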
# HBV = conditions: Phase 1b clinical trial, 600 mg bid dosing for 29 days; cited from earlier work
# [2] = HepG2 cells, MTT cell viability, 7-day incubation, tested 30 μM to 1.0 nM, read-out: HepG2 CC50
Compound,EC50 [1],CC50 (HepG2 cells),CC50 (HepG2 cells; [2]),reduction in HBV DNA (HBV)
"Cc1cc(NC(=O)c2c(Cl)c(C(=O)C(=O)NC3(CO)CC3)n3c2CCCC3)ccc1F [Example 491, 2-chloro-N-(4-fluoro-3-methylphenyl)-3-(2-((1-(hydroxymethyl)cyclopropyrl)amino)-2-oxoacetyl)-5,6,7,8-tetrahydroindolizine-1-carboxamide]",< 50 nM,> 30000 nM,–,–
"Cc1cc(NC(=O)c2c(C)c(C(=O)C(=O)N[C@@H]3[C@@H]4C[C@@H]5C[C@H]3C[C@@](O)(C5)C4)n(C)c2C)ccc1F [Example 74, N-(4-fluoro-3-methylphenyl)-5-(2-(((1R,2s,3S,5s,7s)-5-hydroxyadamantan-2-yl)amino)-2-oxoacetyl)-1,2,4-trimethyl-1H-pyrrole-3-carboxamide]",< 50 nM,–,> 30000 nM,–
"(S)-4-chloro-N-(4-fluoro-3- methylphenyl)-5-(2-((1- hydroxybutan-2-yl)amino0-2- oxoacetyl)-1,2-dimethyl-1H- pyrrole-3-carboxamide [Example 368]",50 to 499 nM,–,> 30000 nM,–
"N-(4-fluoro-3-methylphenyl)-1,2,4-trimethyl-5-(2-(((1s,4s)-4-morpholinocyclohexyl)amino)-2-oxoacetyl)-1H-pyrrole-3-carboxamide [Example 265]",50 to 499 nM,–,> 30000 nM,–
(S)-2-chloro-N-(4-fluoro-3- methylphenyl)-5-(2-((1- hydroxybutan-2-yl)amino)-2- oxoacetyl)-14-dimethyl-1H- pyrrole-3-carboxamide [Example 389],> 1000 nM,–,5000 to 30000 nM,–
O=C(Nc1cc(F)c(F)c(F)c1)c1ccc(F)c(S(=O)(=O)N2CCC(O)CC2)c1 [NVR 3-778],–,–,–,−1.7 log 10
